Experimental data reported in patent US10815241B2, “Optically active azabicyclo ring derivative” (priority 2018, dated 2020).
Entries after “also recorded” stand apart in the source; their conditions may differ. Read-outs that look alike come from different tables or passages of the source.

How the values were obtained:
[1] = tested on: RS4; 11 cells; assay: Test 2: inhibition of cell proliferation, RS4;11; type: cell-based; settings: for IC50: RS4;11 cells, 7 days, PrestoBlue cell viability; for cell proliferation inhibition activity: statement in words, RS4;11 and MOLM-13 cells
Description: (§1) RS4; 11 cells were obtained from American Type Culture Collection (ATCC). […] MOLM-13 cells were separately obtained from DSMZ (Deutsche Sammlung von Mikroorganismen und Zellkulturen GmbH).
(§2) The cells were plated to a 96-well plate in 2000 cells/well, each test compound was added thereto to adjust the final concentration of DMSO to 0.1% of DMSO, and the cells were cultured for 7 days. After the cultivation, the cell viability was calculated with PrestoBlue™ Cell Viability Reagent (Invitrogen, A13261).

[2] = tested on: MOLM-13 cells; assay: Test 2: inhibition of cell proliferation, MOLM-13; type: cell-based; settings: 7 days, PrestoBlue cell viability
Description: as §1, §2

[3] = biological target: hERG (human Ether-a-go-go Related Gene) (Homo sapiens (Human), UniProt Q12809); assay: Test 4: hERG inhibition (QPatch HT, CHO cells stably expressing hERG); settings: for hERG/RS4; 11: hERG IC50 divided by RS4;11 proliferation IC50
[4] = biological target: Menin-MLL binding (His-Menin1-615 / MLL1-172-FLAG) (Homo sapiens (Human), UniProt O00255); assay: Test 1: inhibition of the Menin-MLL binding (HTRF); settings: for IC50: Menin-MLL binding inhibition; for Menin-MLL binding inhibition activity: statement in words on the table of Test 1
Description: After the incubation, the signal was detected with RUBYstar (BMG LABTECH).

[5] = tested on: MEIS1; assay: Test 3: inhibition of mRNA transcription, MEIS1 in MV4;11 cells; type: cell-based; settings: for mRNA at 1 μM (% control) MEIS1: MV4;11 cells, 20 to 24 hours, relative to GAPDH; for mRNA transcription inhibition activity: statement in words, MEIS1 and HOXA9, MV4;11 cells
Description: (§3) MV4; 11 cells were obtained from American Type Culture Collection (ATCC). […] The expression level of each obtained gene (MEIS1 and HOXA9) was fitted with the expression level of mRNA of GAPDH.

[6] = tested on: HOXA9; assay: Test 3: inhibition of mRNA transcription, HOXA9 in MV4;11 cells; type: cell-based; settings: 20 to 24 hours, relative to GAPDH
Description: as §3

[7] = read-out: hERG inhibition IC50, hERG current, CHO cells

Sequence of hERG (human Ether-a-go-go Related Gene) (Q12809 whole entry): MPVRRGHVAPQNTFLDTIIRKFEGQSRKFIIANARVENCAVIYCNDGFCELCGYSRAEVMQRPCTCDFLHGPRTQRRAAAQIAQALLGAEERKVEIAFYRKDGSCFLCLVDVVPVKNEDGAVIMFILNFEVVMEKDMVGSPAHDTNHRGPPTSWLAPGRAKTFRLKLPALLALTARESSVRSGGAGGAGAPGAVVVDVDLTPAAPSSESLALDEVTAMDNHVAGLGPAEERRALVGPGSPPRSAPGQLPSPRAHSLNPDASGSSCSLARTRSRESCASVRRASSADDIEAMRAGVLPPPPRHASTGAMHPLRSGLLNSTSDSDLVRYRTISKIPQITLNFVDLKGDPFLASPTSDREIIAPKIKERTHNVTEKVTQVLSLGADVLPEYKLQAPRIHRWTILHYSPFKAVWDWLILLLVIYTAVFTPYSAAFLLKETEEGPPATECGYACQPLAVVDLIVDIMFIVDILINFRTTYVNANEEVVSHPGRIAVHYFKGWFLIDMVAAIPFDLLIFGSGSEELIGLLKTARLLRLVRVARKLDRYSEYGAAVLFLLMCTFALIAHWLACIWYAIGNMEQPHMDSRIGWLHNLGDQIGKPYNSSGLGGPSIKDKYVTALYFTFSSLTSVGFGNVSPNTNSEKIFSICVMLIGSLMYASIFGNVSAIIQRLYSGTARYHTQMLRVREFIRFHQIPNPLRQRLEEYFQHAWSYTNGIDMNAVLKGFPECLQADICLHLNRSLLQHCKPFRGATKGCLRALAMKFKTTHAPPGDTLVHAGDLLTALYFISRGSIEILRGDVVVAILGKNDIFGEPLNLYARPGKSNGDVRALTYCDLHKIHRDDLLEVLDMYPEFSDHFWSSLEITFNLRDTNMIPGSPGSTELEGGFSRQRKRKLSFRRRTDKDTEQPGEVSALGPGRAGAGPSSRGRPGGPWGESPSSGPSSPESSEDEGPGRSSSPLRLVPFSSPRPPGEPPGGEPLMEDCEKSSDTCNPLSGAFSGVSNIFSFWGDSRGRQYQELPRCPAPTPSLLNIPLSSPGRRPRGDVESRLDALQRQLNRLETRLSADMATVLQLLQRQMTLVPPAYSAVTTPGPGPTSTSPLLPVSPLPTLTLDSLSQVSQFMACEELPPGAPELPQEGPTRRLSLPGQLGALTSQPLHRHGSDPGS
Sequence of Menin-MLL binding (His-Menin1-615 / MLL1-172-FLAG) (O00255 other isoform, or with tags, fused parts or gaps): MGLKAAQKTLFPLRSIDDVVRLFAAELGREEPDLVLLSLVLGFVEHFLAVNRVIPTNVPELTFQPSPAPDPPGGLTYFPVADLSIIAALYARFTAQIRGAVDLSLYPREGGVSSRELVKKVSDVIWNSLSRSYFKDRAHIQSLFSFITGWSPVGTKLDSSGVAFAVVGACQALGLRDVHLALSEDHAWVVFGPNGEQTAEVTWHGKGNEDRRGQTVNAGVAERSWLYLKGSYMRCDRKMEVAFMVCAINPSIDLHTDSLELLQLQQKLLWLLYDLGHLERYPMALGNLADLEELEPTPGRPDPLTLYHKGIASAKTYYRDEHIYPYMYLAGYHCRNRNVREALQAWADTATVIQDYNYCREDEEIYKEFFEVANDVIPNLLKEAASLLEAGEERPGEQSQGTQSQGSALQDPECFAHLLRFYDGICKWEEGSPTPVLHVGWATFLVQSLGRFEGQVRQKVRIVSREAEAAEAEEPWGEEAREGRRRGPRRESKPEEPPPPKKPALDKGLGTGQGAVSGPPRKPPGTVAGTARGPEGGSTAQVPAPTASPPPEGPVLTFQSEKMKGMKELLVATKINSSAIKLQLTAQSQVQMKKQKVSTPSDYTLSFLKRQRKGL

Row | IC50 ([1]; Homo sapiens) [nM] | IC50 ([2]; Homo sapiens) [nM] | SMILES | IC50 [1] [nM] | cell proliferation inhibition activity [1] | IC50 [2] [nM] | gap between RS4; 11 proliferation IC50 and hERG current IC50 [3] | IC50 [3, 7] [nM] | IC50 [3] [nM] | hERG/RS4; 11 [3] | IC50 [4] [nM] | Menin-MLL binding inhibition activity [4] | mRNA at 1 μM (% control) MEIS1 [5] [% control] | mRNA transcription inhibition activity [5] | mRNA at 1 μM (% control) HOXA9 [6] [% control]
1 | 250 | 250 | CC(C)N(C(=O)c1cc(F)ccc1Oc1cncnc1N1CC2(CCN(C(=O)[C@H]3N[C@H]4CC[C@@H]3C(=O)C4)CC2)C1)C(C)C [Example 12, 5-fluoro-2-[(4-{7-[(1S,3S,4S)-5-oxo-2-azabicyclo[2.2.2]octane-3-carbonyl]-2,7-diazaspiro[3.5]nonan-2-yl}pyrimidin-5-yl)oxy]-N,N-di(propan-2-yl)benzamide] |  |  |  | more than 100 fold |  | > 100000 | >400 |  |  |  |  | 
2 | 870 | 810 | CC(C)N(C(=O)c1cc(F)ccc1Oc1cncnc1N1CCC2(CCN(C(=O)[C@H]3N[C@H]4CC[C@@H]3CC4)C2)C1)C(C)C (stereo partly drawn) [Example 2, 2-[(4-{7-[(1R,3S,4R)-2-Azabicyclo[2.2.2]octane-3-carbonyl]-2,7-diazaspiro[4.4]nonan-2-yl}pyrimidin-5-yl)oxy]-5-fluoro-N,N-di(propan-2-yl)benzamide] |  |  |  |  |  | 11800 | 13.6 |  |  |  |  | 
3 | 20 | 30 | C=C1C[C@@H]2CC[C@H]1[C@@H](C(=O)N1CCC3(CC1)CN(c1ncncc1Oc1ccc(F)cc1C(=O)N(C(C)C)C(C)C)C3)N2 [Example 6, 5-Fluoro-2-[(4-{7-[(1S,3S,4R)-5-methylidene-2-azabicyclo[2.2.2]octane-3-carbonyl]-2,7-diazaspiro[3.5]nonan-2-yl}pyrimidin-5-yl)oxy]-N,N-di(propan-2-yl)benzamide] |  |  |  |  |  |  |  |  |  | 15.1 | showed the mRNA transcription inhibition activity | 39.3
4 |  | 40 | CC(C)N(C(=O)c1cc(F)ccc1Oc1cncnc1N1CC2(CCN(C(=O)[C@H]3N[C@@H]4CC[C@H]3C4)CC2)C1)C(C)C [Example 16, 2-[(4-{7-[(1R,3S,4S)-2-azabicyclo[2.2.1]heptane-3-carbonyl]-2,7-diazaspiro[3.5]nonan-2-yl}pyrimidin-5-yl)oxy]-5-fluoro-N,N-di(propan-2-yl)benzamide] |  |  |  |  |  | > 100000 | >3571 |  |  |  |  | 
5 | 80 | 80 | C=C1C[C@H]2CC[C@@H]1N[C@@H]2C(=O)N1CC2(C1)CN(c1ncncc1Oc1ccc(F)cc1C(=O)N(C(C)C)C(C)C)C2 [Example 9, 5-fluoro-2-[(4-{6-[(1S,3S,4R)-6-methylidene-2-azabicyclo[2.2.2]octane-3-carbonyl]-2,6-diazaspiro[3.3]heptan-2-yl}pyrimidin-5-yl)oxy]-N,N-di(propan-2-yl)benzamide] |  |  |  | more than 100 fold |  | > 10000 | >125 |  |  | 17.0 |  | 41.2
6 | 90 | 110 | C=C1C[C@H]2CC[C@@H]1N[C@@H]2C(=O)N1CCC2(CC1)CN(c1ncncc1Oc1ccc(F)cc1C(=O)N(C(C)C)C(C)C)C2 [Example 8, 5-fluoro-2-[(4-{7-[(1S,3S,4R)-6-methylidene-2-azabicyclo[2.2.2]octane-3-carbonyl]-2,7-diazaspiro[3.5]nonan-2-yl}pyrimidin-5-yl)oxy]-N,N-di(propan-2-yl)benzamide] |  |  |  | more than 100 fold |  | 12300 | 137 |  |  | 17.1 |  | 40.1
7 |  | 40 | C=C1C[C@@H]2C[C@H]1[C@@H](C(=O)N1CCC3(CC1)CN(c1ncncc1Oc1ccc(F)cc1C(=O)N(C(C)C)C(C)C)C3)N2 [Example 18, 5-fluoro-2-[(4-{7-[(1S,3S,4R)-5-methylidene-2-azabicyclo[2.2.1]heptane-3-carbonyl]-2,7-diazaspiro[3.5]nonan-2-yl}pyrimidin-5-yl)oxy]-N,N-di(propan-2-yl)benzamide] |  |  |  |  |  | 46100 | >2095 |  |  |  |  | 
8 | < 10 | < 10 | CC(C)N(C(=O)c1cc(F)ccc1Oc1cncnc1N1CC2(CCN(C(=O)[C@H]3N[C@H]4CC[C@@H]3[C@H](F)[C@@H]4CC3CC3)CC2)C1)C(C)C [Example 19, 2-[(4-{7-[(1S,3S,4S,5R,6R)-6-(cyclopropylmethyl)-5-fluoro-2-azabicyclo[2.2.2]octane-3-carbonyl]-2,7-diazaspiro[3.5]nonan-2-yl}pyrimidin-5-yl)oxy]-5-fluoro-N,N-di(propan-2-yl)benzamide] |  |  |  | more than 100 fold |  | 6900 | >690 |  |  |  |  | 

Continued, molecule first:

Row | SMILES | IC50 ([1]; Homo sapiens) [nM] | IC50 ([2]; Homo sapiens) [nM] | IC50 [1] [nM] | cell proliferation inhibition activity [1] | IC50 [2] [nM] | gap between RS4; 11 proliferation IC50 and hERG current IC50 [3] | IC50 [3, 7] [nM] | IC50 [3] [nM] | hERG/RS4; 11 [3] | IC50 [4] [nM] | Menin-MLL binding inhibition activity [4] | mRNA at 1 μM (% control) MEIS1 [5] [% control] | mRNA transcription inhibition activity [5] | mRNA at 1 μM (% control) HOXA9 [6] [% control]
9 | CC(C)N(C(=O)c1cc(F)ccc1Oc1cncnc1N1CC2(CCN(C(=O)[C@H]3N[C@H]4CC[C@@H]3[C@@H](F)[C@H]4CC3CC3)CC2)C1)C(C)C [Example 14, 2-[(4-{7-[(1S,3S,4S,5S,6S)-6-(cyclropylmethyl)-5-fluoro-2-azabicyclo[2.2.2]octane-3-carbonyl]-2,7-diazaspiro[3.5]nonan-2-yl}pyrimidin-5-yl)oxy]-5-fluoro-N,N-di(propan-2-yl)benzamide] |  |  | 20 | potent | 40 | more than 100 fold | 11700 |  |  |  |  |  |  | 
10 | CC(C)N(C(=O)c1cc(F)ccc1Oc1cncnc1N1CC2(CN(C(=O)[C@H]3N[C@@H]4CC[C@H]3C4)C2)C1)C(C)C [Example 15, 2-[(4-{6-[(1R,3S,4S)-2-azabicyclo[2.2.1]heptane-3-carbonyl]-2,6-diazaspiro[3.3]heptan-2-yl}pyrimidin-5-yl)oxy]-5-fluoro-N,N-di(propan-2-yl)benzamide] |  |  |  |  |  |  |  | > 100000 | >6250 |  |  |  |  | 
11 | CC(C)N(C(=O)c1cc(F)ccc1Oc1cncnc1N1CC2(CN(C(=O)[C@H]3N[C@H]4CC[C@@H]3C[C@H]4CC3CC3)C2)C1)C(C)C [Example 5, 2-[(4-{6-[(1S,3S,4R,6R)-6-(cyclopropylmethyl)-2-azabicyclo[2.2.2]octane-3-carbonyl]-2,6-diazaspiro[3.3]heptan-2-yl}pyrimidin-5-yl)oxy]-5-fluoro-N,N-di(propan-2-yl)benzamide] | 20 | 30 |  | potent; also recorded: excellent |  | more than 100 fold |  | 7900 | 395 | 4.1 | potent | 15.5 | showed the mRNA transcription inhibition activity | 42.6
12 | [2H]C([2H])=C1C[C@@H]2CC[C@H]1[C@@H](C(=O)N1CCC3(CC1)CN(c1ncncc1Oc1ccc(F)cc1C(=O)N(C(C)C)C(C)C)C3)N2 [Example 20, 5-Fluoro-2-[(4-{7-[(1S,3S,4R)-5-(^2H2)methylidene-2-azabicyclo[2.2.2]octane-3-carbonyl]-2,7-diazaspiro[3.5]nonan-2-yl}pyrimidin-5-yl)oxy]-N,N-di(propan-2-yl)benzamide] |  | < 30 |  |  |  |  |  |  |  |  |  |  |  | 
13 | CC(C)N(C(=O)c1cc(F)ccc1Oc1cncnc1N1CC2(CN(C(=O)[C@H]3NC4CCC3CC4)C2)C1)C(C)C [Example 11, 2-[(4-{6-[(1R,3S,4R)-2-azabicyclo[2.2.2]octane-3-carbonyl]-2,6-diazaspiro[3.3]heptan-2-yl}pyrimidin-5-yl)oxy]-5-fluoro-N,N-di(propan-2-yl)benzamide] |  |  |  |  |  |  | > 10000 |  | >500 |  |  | 13.1 | showed the mRNA transcription inhibition activity | 36.5
14 | CC(C)N(C(=O)c1cc(F)ccc1Oc1cncnc1N1CC2(CN(C(=O)[C@H]3N[C@H]4CC[C@@H]3[C@@H](F)C4)C2)C1)C(C)C [Example 10, 5-fluoro-2-[(4-{6-[(1S,3S,4S,5S)-5-fluoro-2-azabicyclo[2.2.2]octane-3-carbonyl]-2,6-diazaspiro[3.3]heptan-2-yl}pyrimidin-5-yl)oxy]-N,N-di(propan-2-yl)benzamide] | 20 | 30 |  | potent |  | more than 100 fold |  | > 10000 | >500 | < 3 | particularly potent | 13.3 | showed the mRNA transcription inhibition activity | 37.4
15 | C=C1C[C@@H]2CC[C@H]1[C@@H](C(=O)N1CC3(C1)CN(c1ncncc1Oc1ccc(F)cc1C(=O)N(C(C)C)C(C)C)C3)N2 [Example 7, 5-fluoro-2-[(4-{6-[(1S,3S,4R)-5-methylidene-2-azabicyclo[2.2.2]octane-3-carbonyl]-2,6-diazaspiro[3.3]heptan-2-yl}pyrimidin-5-yl)oxy]-N,N-di(propan-2-yl)benzamide] |  |  |  |  |  |  |  |  |  |  |  |  | showed the mRNA transcription inhibition activity | 
